Experimental data as given in patent US20150133537A1, “3 - (1' - ADAMANTYL) - 1 - AMINOMETHYL - 3, 4 - DIHYDRO - 5, 6 - DIHYDROXY - 1H - 2 - BENZOPYRAN FOR USE IN THE TREATMENT OF A DISEASE ASSOCIATED WITH BETA-AMYLOID INDUCED TOXICITY” (The University of Manchester, priority 2012, published 2015).
Where “and” joins values, the source holds several entries; their conditions need not be identical. Equal values may be shown once. Where a name gives a salt, the structure may show the parent alone.

Columns and labels:
[1] = tested on: SH-SY5Y cells treated with extracellular Aβ42; assay: MTT assay of cell viability in the presence of extracellular Aβ42; type: cell-based; settings: for cell viability (MTT): hydrochloride
Procedure: The compound and target peptide were added simultaneously and incubated at 37° C. followed by cellular viability measurement using MTT assay. […] Data are represented as mean percentage viability, with no treatment controls set as 100%, n=3 and the error bars represent standard error.
The MTT assay provides a colorimetric analysis of cell viability by the conversion of MTT into formazan product by the mitochondrial enzyme succinate dehydrogenase. For cytotoxicity experiments cells were washed twice with Dulbecco's PBS followed by trypsinisation of cells, centrifugation at 1800 rpm and seeding the cells on 96 well flat bottom plates (Costar) in Opti-MEM media without phenol red supplemented with 1.5% FCS, 1% L-glutamine, 1% Penicillin-streptomycin (P/S) and 1% non essential amino acids (NEAA).
The cells were seeded at 1×10^5/ml density in a 96 well flat bottom plate (Costar) and incubated for 24 hr in a humidified incubator at 37° C. with 5% CO2.
After 24 hr; 50 μl of the media was removed and 10 μl of MTT (2.5 mg/ml) was added to the cells. This was followed by incubation for further 4 hr at 37° C. and 5% CO2. MTT reduction was characterized by adding 100 μl solubilization solution containing 50 ml isopropyl alcohol and 197 μl of 37% HCl. The cytotoxicity was determined by measuring the absorbance at 570 nm using Polarstar BMG labtech plate reader.
For the MTT cytotoxicity assay, A-77636 was diluted in the Opti-MEM media supplemented with 1.5% FCS, 1% P/S, 1% L-glutamine and 1% NEAA. The target compound was added to the SH-SY5Y cells at concentrations of 100 μM, 10 μM, 1 μM, 100 nM, 10 nM and 1 nM.
The cells were seeded at 1×10^5/ml density in a 96 well flat bottom plate (Costar) and incubated for 24 hr in a humidified incubator at 37° C. with 5% CO2. […] The cells were then incubated for 24 hr in the humidified incubator at 37° C. in 5% CO2.
After 24 hr; 500 of the media was removed and 10 μl of MTT (2.5 mg/ml) was added to the cells. This was followed by incubation for further 4 hr at 37° C. and 5% CO2. MTT reduction was characterized by adding 100 μl solubilization solution containing 50 ml isopropyl alcohol and 197 μl of 37% HCl. The 96 well plates were kept at room temperature for 6 hr to dissolve the formazan crystals. The cytotoxicity was determined by measuring the absorbance at 570 nm using Polarstar BMG labtech plate reader.

[2] = tested on: SHSY5Y cells treated with Aβ42 (1 μM); assay: Cyto Tox-One LDH (lactate dehydrogenase) release assay; type: cell-based; settings: for LDH release: SHSY5Y cells, Exp 1-3 and Avg, hydrochloride;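 as to all read-outs here: fluorescent readout of resorufin formed from resazurin in proportion to released LDH (excitation 560 nm, emission 590 nm), with detergent-lysed dead cells taken as 100% maximal release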
Source text: The LDH assay provides the measure of cytotoxicity, wherein the amount of LDH released quantifies cell membrane damage, caused either by apoptosis or necrosis^13,15. The commercially available Cyto Tox-One assay (Promega; G7890) was used here which provides a fluorescent measure of LDH release, wherein the reduction of resazurin dye to resofurin is coupled through enzymatic conversion involving NADH. The generation of fluorescent dye resofurin is proportional to the amount of LDH release.
For the LDH cytotoxicity assay, A-77636 was diluted in the Opti-MEM media supplemented with 1.5% FCS, 1% P/S, 1% L-glutamine and 1% NEAA. A-77636 was added to the SHSY5Y cells at concentrations of 100 μM, 10 μM, 1 μM, 100 nM, 10 nM and 1 nM.
The cells were seeded at 1×10^5/ml density in a 96 well black, flat bottom plate (BD Biosciences) and incubated for 24 hr in a humidified incubator at 37° C. with 5% CO2. […] The final concentration of the target peptide and A-77636 within the cells was 1 μM:100 μM, 1 μM:10 μM, 1 μM:1 μM, 1 μM:100 nM, 1 μM:10 nM, and 1 μM:1 nM respectively. The cells were then incubated for 24 hr in the humidified incubator at 37° C. in 5% CO2.
After 24 hr, the 96 well plates were removed from the incubator and equilibrated at 22° C. for 30 min. The Cyto Tox-One reagent was prepared according to the manufacturer's protocol by equilibrating the substrate mix at 22° C. and thawing the assay buffer at 37° C. in a water bath. This was followed by adding 11 ml of assay buffer to each vial of substrate mix. 100 μl of Cyto Tox-One reagent was added to each well. The preparation and addition of Cyto Tox-One reagent was undertaken in the dark to avoid increased background fluorescence and stored at −20° C. until required. The cells were further incubated at 22° C. for 10 min followed by addition of stop solution to the wells in the same order as that of the Cyto Tox-One reagent to avoid increased variation in the results. The stop solution stops formation of fluorescent product resofurin. The maximum LDH release (set as 100%) for each experiment was determined by adding 2 μl of lysis solution (9% triton X 100, Promega) to the cells prior to the addition of Cyto Tox-One reagent, providing a dead cell control. […] The 96 well plates were then kept on the shaker for 10 sec and the fluorescence was measured immediately with an excitation at 560 nm and emission at 590 nm using a Polarstar BMG plate reader.

[3] = tested on: Parkinson's disease in animal models; settings: known, reference 9; cited from earlier work
[4] = known, reference 16; cited from earlier work

Structure (SMILES): Br.C=CCN1CCc2c(cc(O)c(O)c2Br)[C@@H](c2ccccc2)C1 [Compound A, R(+)-6-Bromo-7,8-dihydroxy-3-allyl-1-phenyl-2,3,4,5-tetrahydro-1H-3-benzazepine hydrobromide, reference compound]
- inhibition of Aβ42 toxicity ([1]; D1 receptor agonist screen, SH-SY5Y cells, Aβ42 (1 μM), 24 hr, MTT): partial inhibition
- cellular viability (MTT) ([1]; D1 receptor agonist screen, SH-SY5Y cells, added simultaneously with Aβ42 (1 μM), 24 hr, no treatment controls = 100%, p<0.05): 81%

Structure (SMILES): NC[C@@H]1O[C@H](C23CC4CC(CC(C4)C2)C3)Cc2c1ccc(O)c2O [Compound A-77636, (1R,3S) 3-(1′-adamantyl)-1-aminomethyl-3,4-dihydro-5,6-dihydroxy-1H-2-benzopyran hydrochloride]
- toxicity in LDH assay ([2]; A-77636 at 100 μM, 1 μM Aβ42): possibly toxic
- LDH release ([2]; 1 μM Aβ42 + 1 nM A-77636, 24 hr): 35% and 38% and 61%
- LDH release ([2]; 1 μM Aβ42 + 1 nM A-77636, 24 hr, mean): 45%
- LDH release ([2]; 1 μM Aβ42 + 10 nM A-77636, 24 hr): 35% and 39% and 56%
- LDH release ([2]; 1 μM Aβ42 + 10 nM A-77636, 24 hr, mean): 43%
- LDH release ([2]; 1 μM Aβ42 + 100 nM A-77636, 24 hr): 20% and 23% and 32%
- LDH release ([2]; 1 μM Aβ42 + 100 nM A-77636, 24 hr, mean): 25%
- LDH release ([2]; 1 μM Aβ42 + 1 μM A-77636, 24 hr): 27% and 48% and 43%
- LDH release ([2]; 1 μM Aβ42 + 1 μM A-77636, 24 hr, mean): 39%
- LDH release ([2]; 1 μM Aβ42 + 10 μM A-77636, 24 hr): 33% and 47% and 52%
- LDH release ([2]; 1 μM Aβ42 + 10 μM A-77636, 24 hr, mean): 44%
- LDH release ([2]; 1 μM Aβ42 + 100 μM A-77636, 24 hr, LDH max (dead cells) = 100): 61% and 53% and 64%
- effect on Aβ42 toxicity in LDH assay ([2]; all concentrations from 100 μM to 1 nM, 1 μM Aβ42): reduces Aβ42 toxicity
- activity against Parkinson's disease in animal models [3]: activity against Parkinson's disease
- inhibition of the toxic effects of Aβ42 ([1]; 1 μM A-77636, 1 μM Aβ42, MTT, Table 1): capable of inhibiting the toxic effects of Aβ42
- activity against Aβ42 toxicity in MTT assay ([1]; A-77636 at 1 nM, SH-SY5Y cells with 1 μM Aβ42): inactive
- toxicity in MTT assay ([1]; A-77636 at 100 μM, SH-SY5Y cells with 1 μM Aβ42): toxic
- activity against Aβ42 toxicity in MTT assay ([1]; A-77636 from 10 nM to 10 μM, SH-SY5Y cells with 1 μM Aβ42): active
- cell viability (MTT) ([1]; SH-SY5Y cells, 1 μM Aβ42 + 1 μM A-77636, 24 hr, Aβ42 −ve cells = 100%, Experiments 1-3 and Average): 82% and 69% and 92%
- cell viability (MTT) ([1]; SH-SY5Y cells, 1 μM Aβ42 + 1 μM A-77636, 24 hr, Aβ42 −ve cells = 100%, Experiments 1-3 and Average, mean): 81%
- cell viability (MTT) ([1]; SHSY5Y cells, 1 μM Aβ42 + 1 nM A-77636, 24 hr, Exp 1-3 and Avg): 71% and 67%
- cell viability (MTT) ([1]; SHSY5Y cells, 1 μM Aβ42 + 1 nM A-77636, 24 hr, Exp 1-3 and Avg, mean of three experiments): 68%
- cell viability (MTT) ([1]; SHSY5Y cells, 1 μM Aβ42 + 10 nM A-77636, 24 hr, Exp 1-3 and Avg): 80% and 74% and 84%
- cell viability (MTT) ([1]; SHSY5Y cells, 1 μM Aβ42 + 10 nM A-77636, 24 hr, Exp 1-3 and Avg, mean of three experiments): 79%
- cell viability (MTT) ([1]; SHSY5Y cells, 1 μM Aβ42 + 100 nM A-77636, 24 hr, Exp 1-3 and Avg): 78% and 74% and 81%
- cell viability (MTT) ([1]; SHSY5Y cells, 1 μM Aβ42 + 100 nM A-77636, 24 hr, Exp 1-3 and Avg, mean of three experiments): 77%
- cell viability (MTT) ([1]; SHSY5Y cells, 1 μM Aβ42 + 1 μM A-77636, 24 hr, Exp 1-3 and Avg (Table 2)): 87% and 90% and 86%
- cell viability (MTT) ([1]; SHSY5Y cells, 1 μM Aβ42 + 10 μM A-77636, 24 hr, Exp 1-3 and Avg): 84% and 81% and 86%
- cell viability (MTT) ([1]; SHSY5Y cells, 1 μM Aβ42 + 10 μM A-77636, 24 hr, Exp 1-3 and Avg, mean of three experiments): 83%
- cell viability (MTT) ([1]; SHSY5Y cells, 1 μM Aβ42 + 100 μM A-77636, 24 hr, Exp 1-3 and Avg): 9% and 4%
- cell viability (MTT) ([1]; SHSY5Y cells, 1 μM Aβ42 + 100 μM A-77636, 24 hr, Exp 1-3 and Avg, mean of three experiments): 6%
- crossing of the blood-brain barrier [4]: cross the blood-brain barrier
